Data published in PMC6268855, “New Trifluoromethyl Triazolopyrimidines as Anti-Plasmodiumfalciparum Agents” (Molecules, 2012).

How the values were obtained:
Type in all cases: cell-based
[1] = test system: Plasmodium falciparum chloroquine-resistant W2 clone; assay: [3H]-hypoxanthine incorporation assay on P. falciparum-infected erythrocytes; conditions: Erythrocyte, W2 clone, 1% parasitemia, 1% hematocrit, read-out: IC50 Plasmodium Falciparum Hypoxanthine
Method: (§1) Briefly, the parasites were kept as described at 37 °C in human erythrocytes (A^+) in complete medium (RPMI 1640 supplemented with 10% human sera blood group A^+, 2% glutamine, and 7.5% NaHCO3) either in Petri dishes in a candle jar or in 25-cm culture flasks in an environment containing a gas mixture atmosphere (3% O2, 5% CO2 and 91% N2). Before testing, the ring-stage parasites were synchronized by sorbitol; the suspension was adjusted for parasitemia and hematocrit as described below for each test used.
(§2) The effects of compounds against the W2 P. falciparum blood cultures were evaluated through incorporation of ^3H hypoxanthine (Perkin Elmer, Waltham, MA, USA) by the parasites. Alternatively, compound effects were also examined using monoclonal antibodies to a commercially available parasite histidine and alanine-rich protein (HRP2) (MPFM ICLLAB-55A®, MPFG55P ICLLAB®, Immunology Consultants Laboratory Inc. (ICL), Portland, OR, USA), as described previously. The [3H]-hypoxanthine assay was performed with 1% of parasitemia and 1% of hematocrit, and the level of isotope incorporation was read in a beta-counter (Perkin Elmer). The anti-HRP2 test was performed with 0.05% parasitemia and 1.5% hematocrit, and the quantification of protein was determined using a specific read at 450 nm in a spectrophotometer (SpectraMax340PC^384, Molecular Devices, Sunnyvale, CA, USA). Drug activities were expressed by the half-maximal inhibitory dose (IC50) compared to the drug-free controls and estimated using the curve-fitting software Origin 8.0 (OriginLab Corporation, Northampton, MA, USA).

[2] = test system: Plasmodium falciparum chloroquine-resistant W2 clone; assay: anti-HRP2 test on P. falciparum-infected erythrocytes; conditions: W2 clone
Method: as §1, §2

[3] = test system: human hepatoma cell line (HepG2); conditions: MTT, 24 h incubation
Method: For in vitro cytotoxicity experiments, the cell monolayer was trypsinized, washed with culture medium, distributed in a flat-bottomed 96-well plate (5 × 10^3 cells/well), and finally incubated for 18 h at 37 °C for cell adherence.
For cytotoxicity testing, we used the (3-(4,5-dimethylthiazol-2-yl)-2,5-diphenyltetrazolium bromide (MTT) assay, performed as described in the literature. The HepG2 cell line was incubated with 20 µL of the compounds in different concentrations (200–25 µg/mL) for 24 h in an atmosphere of 5% CO2 at 37 °C.
For the MTT assay, which evaluates mitochondrial viability, 20 µL of MTT solution (5 mg/mL) was added, and the plates were incubated for an additional 3 h. After incubation, the supernatant was carefully removed from the wells, followed by addition of 100 µL DMSO with thorough mixing. Optical densities at 570 and 630 nm (background) were determined by an ELISA reader.
Cell viability was expressed as the percentage of control absorbance obtained in untreated cells after subtracting the absorbance from appropriate background. Lastly, the minimum lethal dose for 50% of the cells (MLD50) was determined as previously described in the literature. The ratio between MLD50 and drug activity (IC50) in vitro was used to determine the selectivity index (SI).

- IC50 [1]: 39.1 µM
- IC50 ([2]; Plasmodium falciparum, Erythrocyte, 0.05% parasitemia, 1.5% hematocrit, read-out: IC50 Plasmodium Falciparum Anti-HRP2): 73 ± 17 µM
- MDL50 HepG2 [3]: >558 µM
Structure (SMILES): CCN(CC)CCCC(C)Nc1cc(C)nc2nc(C(F)(F)F)nn12 (stereo not shown) [Compound 29, 5-Methyl-7-N'-(N,N-diethylpentane-1,4-diamine)-2-(trifluoromethyl)[1,2,4]triazolo[1,5-a]pyrimidine]
- activity class against P. falciparum ([2]; class by IC50): Inactive
